# Reference: patent US11510964B2, “Macrocyclic peptides to decrease c-Myc protein levels and reduce cancer cell growth” (University of Kansas, priority 2017, dated 2022)
# “Also recorded” adds a separate entry of the source. Non-standard residues stand in square brackets, D forms with d. Residues, ends and D or L forms follow the SMILES beside them.
# Key:
# Format in all cases: cell-based, human
# [1] = tested on: c-Myc protein levels in PC-3 cells; experiment: Western blot analysis of cellular c-Myc protein levels
# Experimental: Cells were seeded in 6 well plates at a density of 1×10^5 cells/well and grown to 75% confluence. Cells were treated with [D-Trp]CJ-15,208 at the indicated concentrations. Cells were then harvested as described above, and the cell pellets lysed in RIPA buffer consisting of 10 mM Tris HCl, pH 8.0, 150 mM NaCl, 1 mM EDTA, 1% Triton-X-100, 0.1% SDS, 1% sodium deoxycholate, and a protease inhibitor cocktail #P8340 (Sigma). Cell lysates were centrifuged at 13×1000 rpm for 15 min and the supernatants collected. The total protein concentration was measured in cell lysates using the standard Bradford assay. SDS gel electrophoresis was performed using 4-20% polyacrylamide gel (BioRad). Western blot analysis was performed using the following antibodies: i) c-Myc #5605 (rabbit monoclonal, 1:2000 dilution, (Cell Signaling Technologies)); actin #A2228 (mouse monoclonal, 1:5000 dilution (Sigma)), PP2A #610555 (mouse monoclonal 1:5000 dilution, BD Biosciences), p-PP2A #1155-1 (rabbit polyclonal, 1:5000 dilution (Epitomics)), Erk #9107 (mouse monoclonal, 1:2000 dilution (Cell Signaling Technologies) and p-Erk #4376 (rabbit monoclonal, 1:2000 (Cell Signaling Technologies)); Akt #2920 (mouse monoclonal, 1:2000 dilution (Cell Signaling Technologies)), p-Akt #4056 (rabbit monoclonal, 1:2000 (Cell Signaling Technologies)). The secondary antibodies, goat-anti-mouse #116-035-003 and goat-anti-rabbit #111-035-003, were obtained from Jackson ImmunoResearch Laboratory. Signal densities of the protein bands were determined using ImageJ software (NIH) and normalized to the internal loading control (actin).
# c-Myc mRNA in PC-3 cells = experiment: c-Myc mRNA measurement (real-time PCR); conditions: 10 μM, 0 h to 48 h
# Experimental: PC-3 cells were grown in 10 cm petri dishes to 75% confluency, and then treated with [D-Trp] CJ-15,208 (10 μM) for 2-48 h. Cells were harvested and the total RNA from each sample was isolated using the Aurum Total RNA Mini Kit #732-6820 (Bio-Rad) per the manufacturer's instructions. The RNA concentration in the sample was determined using a NanoDrop ND-1000 spectrophotometer. Total RNA (1 μg) from each sample was used to synthesize cDNA using the iScript cDNA Synthesis Kit (BioRad). Real-time PCR was performed with a Power-SYBR Green PCR Master Mix (Applied Biosystems) using the following thermal cycles: initial activation at 95° C. for 5 min, followed by 40 cycles of 95° C. for 15 s and 60° C. for 1 min. The fluorescence was determined at the melting temperature of the product for 20 s (ABI PRISM 7000 Sequence Detection System, Applied Biosystems). The following primer sets were used to amplify regions of c-Myc and GAPDH (internal control): c-Myc (forward: 5′-CTG GTG CTC CAT GAG GAG-3′ (SEQ ID NO: 1), reverse: 5′-AGG TGA TCC AGA CTC TGA C-3′ SEQ ID NO: 2)) and GAPDH (forward: 5′-CCA TGG AGA AGG CTG GGG-3′ (SEQ ID NO: 3), reverse: 5′-CAAATGTGTCATGGATGACC-3′ SEQ ID NO: 4)). The levels of c-Myc mRNA were normalized to the GAPDH mRNA levels.^37
# PC-3 cells = experiment: Cell viability assay (Trypan Blue); conditions: 48 h and 72 h
# Experimental: (§1) The viability of prostate cancer cells was determined using Trypan Blue (Sigma) per the manufacturer's instructions. Cells were grown in 6 well plates to a density of 1×10^5 cells/well to 75% confluency and treated with compound in 0.5% DMSO at the indicated concentrations for 24-72 h, with 0.5% DMSO as the vehicle control. After treatment, the cell media from each well was collected. The cells were washed with phosphate buffer saline (PBS), trypsinized, and collected. All of the cells, combined media, and washes were centrifuged at 250×g for 5 min. The supernatant was discarded, and the cell pellet was resuspended in 500 μL PBS. Trypan blue (10 μL) was added to 100 μL of resuspended cells, and the solution incubated for 10 min. The cell number in 10 μL was then counted using a hematocytometer. Viable cells (not stained) were distinguished from dead cells (colored blue) and the % viable cells calculated as follows: [(number of white cells)/(number of total cells (white+blue))]*100 and compared with untreated cells.^16
# LNCaP cells = experiment: Cell viability assay (Trypan Blue); conditions: 48 h and 72 h
# Experimental: as §1
# 22Rv1 cells = experiment: Cell viability assay (Trypan Blue); conditions: 48 h and 72 h
# Experimental: as §1
# PP2A in PC-3 cells = experiment: Western blot of p-PP2A/total PP2A protein levels
# Experimental: Cells were seeded in 6 well plates at a density of 1×10^5 cells/well and grown to 75% confluence. Cells were treated with [D-Trp]CJ-15,208 at the indicated concentrations. Cells were then harvested as described above, and the cell pellets lysed in RIPA buffer consisting of 10 mM Tris HCl, pH 8.0, 150 mM NaCl, 1 mM EDTA, 1% Triton-X-100, 0.1% SDS, 1% sodium deoxycholate, and a protease inhibitor cocktail #P8340 (Sigma). Cell lysates were centrifuged at 13×1000 rpm for 15 min and the supernatants collected. The total protein concentration was measured in cell lysates using the standard Bradford assay. SDS gel electrophoresis was performed using 4-20% polyacrylamide gel (BioRad). […] Signal densities of the protein bands were determined using ImageJ software (NIH) and normalized to the internal loading control (actin).
# Each experiment was performed in triplicate unless otherwise stated in the figure legend. […] The effects of compound vs. vehicle treatment on protein levels (FIG. 10) were evaluated by one-way ANOVA with Dunnett's test for multiple comparisons.
smiles,measurement,setting,value
"O=C1N[C@H](Cc2c[nH]c3ccccc23)C(=O)N[C@@H](Cc2ccccc2)C(=O)N2CCC[C@@H]2C(=O)N[C@H]1Cc1ccccc1 [[D-Trp]CJ-15,208, cyclo[Phe-D-Pro-Phe-D-Trp]] (cyclo(F[dP]F[dW]))",decrease of cellular c-Myc protein levels,[1]; 50 μM (FIG. 1E lanes 4 and 5),5 fold
same,reduction of c-Myc protein levels,"[1]; PC-3 cells, 10 μM, 48 h",approximately 50%
same,c-Myc mRNA expression,c-Myc mRNA in PC-3 cells,did not affect mRNA expression; also recorded: did not alter cmyc mRNA levels
same,cell death (Trypan blue),PC-3 cells,resulted in cell death
same,cell death (Trypan blue),LNCaP cells,resulted in cell death
same,cell death (Trypan blue),22Rv1 cells,resulted in cell death
same,total PP2A protein levels,"PP2A in PC-3 cells; PC-3, 48 h, vs. vehicle treated cells",not significantly different
same,p-PP2A levels,"PP2A in PC-3 cells; PC-3, concentrations ≥10 μM, 48 h",significantly reduced
